Source: patent US4937246A, “PAF antagonist, 1,4-disubstituted piperazine compounds and production thereof” (priority 1987, dated 1990)
Where two headings read alike, the source gives them in different places.

Columns and labels:
[1] = system: PAF-induced platelet aggregation; test: Inhibitory action on PAF-induced platelet aggregation (turbidimetry, platelet rich plasma); assay type: cell-based, rabbit (New Zealand white); conditions: Oryctolagus cuniculus, Concentration of test compound: 3 × 10^-5 M
Description: Blood was collected from the hearts of conscious New Zealand white male rabbits weighing 2 to 3 Kg using citric acid as an anticoagulant (one volume part of 3.15% citric acid relative to 9 volume parts of the whole blood). The blood was subjected to a centrifuge at 800 rpm for 10 minutes to obtain platelet rich plasma (PRP). The remaining blood after collecting the PRP was subjected to a centrifuge at 3000 rpm for 10 minutes to obtain platelet poor plasma (PPP). PRP was diluted with PPP to adjust the number of platelets to about 500,000/μl. Platelet aggregation was examined by means of turbidimetry [Born, Nature, 194, 927-929 (1962)] with 8 channel aggregometer (NBS HEMA TRACER 6 Nikoh, Bio-science, Japan). More concretely, PRP (250μl) was kept warm (37° C.) for 3 minutes in a silicon-processed cuvette, to which was added a test sample (25μl) dissolved in a physiological saline or in 10mM dimethlsulfoxide followed by dilution with a physiological saline. Two minutes later, PAF (25μl, 3×10^-9 -1×10^-8 M), dissolved in a physiological saline, was added and then the maximum aggregation rate was determined. As the control, physiological saline without test sample was added to the cuvette, and the inhibitory rate thereon was determined.
Incidentally, Compound B means N,N'-bis(3,4,5-trimethoxybenzoyl)piperazine (a known compound).

[2] = system: PAF-induced hypotension; test: Inhibitory action on PAF-induced hypotension (oral administration); assay type: in vivo, rat (SD (Jcl)); conditions: Rattus norvegicus; for inhibition in vivo at 30 mg/kg: 30 mg/kg oral; for inhibition in vivo at 3 mg/kg: 3 mg/kg oral; for inhibition in vivo at 10 mg/kg: 10 mg/kg oral
Description: SD (Jcl) male rats of 6 to 8 week old were applied with cannulation into the femoral artery and vein under anesthesia with pentobarbital. The animals were fasted overnight, then subjected to the experiment. A tansducer (MPU-0.5-290-0-III, TOYO BALDWIN, Japan) was connected with the artery cannula, and blood pressure was continuously measured by means of polygraph (San-ei, Japan). When the blood pressure became constant, PAF (0.5 to 1.0 μg/kg, 250 μl/kg) dissolved in a physiological saline was injected through the venous cannula to lower the blood pressures by 30 to 45 mmHg. Thirty minutes later, PAF was injected again, and the average of lowered values of blood pressure (twice) was used as the control. After restoration of blood pressure to the initial level, test samples prepared by dissolving or suspending the drug in a physiological saline suspension of gum arabic (5%) were orally administered (5 ml/kg), then, after 1, 2 and 4 hours, PAF was injected. The rate of inhibition of lowering of blood pressure after administration of the test samples against the control was evaluated.

[3] = system: rats

| SMILES | inhibition at 30 µM [1] [%] | inhibition in vivo at 30 mg/kg ([2]; after 1 hr.) [%] | inhibition in vivo at 30 mg/kg ([2]; after 2 hrs.) [%] | inhibition in vivo at 30 mg/kg ([2]; after 4 hrs.) [%] | also measured |
| --- | --- | --- | --- | --- | --- |
| COc1cc(C(=O)N2CCN(C(=O)c3cc(OC)c(OC)c(OC)c3)CC2)cc(OC)c1OC [Compound B, N,N'-bis(3,4,5-trimethoxybenzoyl)piperazine, reference compound] | 100 | 86 | 63 | 26 | LD50 (estimated) ([3]; oral, rats, single dose): ~1000 mg/kg; survival ([3]; rat, in vivo, po, 1000 mg/kg): all of the animals survived |
| COc1cc(CN2CCN(C(=O)c3cc4ccccc4o3)CC2)cc(OC)c1OC.Cl [Working Example 7, 1-(2-benzofuranylcarbonyl)4-(3,4,5-trimethoxybenzyl)piperazine hydrochloride] | – | – | – | – | survival ([3]; single oral dose 1000 mg/kg, rats, one week observation): all of the animals survived |
| COc1cc(CN2CCN(C(=O)c3cc(OC)c(OC)c(OC)c3)CC2)cc(OC)c1OC [compound 2] | 100 | – | – | – | – |
| CCCOc1c(OC)cc(C(=O)N2CCN(Cc3cc(OC)c(OC)c(OC)c3)CC2)cc1[N+](=O)[O-] [compound 3] | 100 | 86 | 63 | 26 | – |
| COc1ccc(C(=O)N2CCN(Cc3cc(OC)c(OC)c(OC)c3)CC2)cc1OC [compound 4] | – | 64 | 32 | 22 | – |
| CCCCOc1c(OC)cc(C(=O)N2CCN(C(=O)c3cc(OC)c(OC)c(OC)c3)CC2)cc1[N+](=O)[O-] [compound 5] | – | 91 | 93 | 88 | – |
| COc1cc(CN2CCN(C(=O)C3=Cc4cc5c(cc4CC3)OCO5)CC2)cc(OC)c1OC [compound 6] | 93 | – | – | – | – |
| COc1cc(CN2CCN(C(=O)c3cc4ccccc4o3)CC2)cc(OC)c1OC [compound 7] | 74 | 4 | 15 | 25 | – |
| COc1cc(CN2CCN(C(=O)c3cccnc3)CC2)cc(OC)c1OC [compound 8] | 63 | – | – | – | – |
| COc1cc(CN2CCN(C(=O)c3nc4ccccc4s3)CC2)cc(OC)c1OC [compound 9] | 52 | – | – | – | – |
| COc1cc(CN2CCN(C(=O)c3cc4ccccc4oc3=O)CC2)cc(OC)c1OC [compound 12] | 78 | 65 | 40 | 24 | – |
| COc1cc(CN2CCN(C(=O)c3ccsc3)CC2)cc(OC)c1OC [compound 13] | 46 | – | – | – | – |
| COc1cc(CN2CCN(C(=O)c3cnc4ccccc4c3)CC2)cc(OC)c1OC [compound 16] | 58 | – | – | – | – |
| COc1cc(CN2CCN(C(=O)c3ccc4c(c3)OCCO4)CC2)cc(OC)c1OC [compound 17] | 88 | – | – | – | – |
| COc1ccc2c3c(oc2c1)CCC(C(=O)N1CCN(Cc2cc(OC)c(OC)c(OC)c2)CC1)=C3 [compound 18] | 84 | – | – | – | – |
| COc1cc(CN2CCN(C(=O)C3CCc4sc5ccccc5c4C3O)CC2)cc(OC)c1OC (centres unmarked) [compound 19] | 64 | – | – | – | – |
| COc1cc(CN2CCN(C(=O)c3ccc4c(c3)C(=O)C3(CC3)O4)CC2)cc(OC)c1OC [compound 21] | 100 | – | – | – | – |
| COc1cc(CN2CCN(C(=O)c3ccc4c(c3)C(O)C3(CC3)O4)CC2)cc(OC)c1OC (centres unmarked) [compound 22] | 100 | 94 | 80 | 2 | – |
| COc1cc2c(cc1OC)SCCC(C(=O)N1CCN(Cc3cc(OC)c(OC)c(OC)c3)CC1)=C2 [compound 23] | 74 | 94 | 94 | 67 | – |
| COc1cc2c(cc1OC)SCCC(C(=O)N1CCN(C(=O)c3cc(OC)c(OC)c(OC)c3)CC1)=C2 [compound 24] | 100 | 94 | 91 | 78 | – |
| COc1cc2c(cc1OC)OCCC(C(=O)N1CCN(Cc3cc(OC)c(OC)c(OC)c3)CC1)=C2 [compound 25] | 100 | 100 | 97 | 70 | – |
| COc1cc2c(cc1OC)OCCC(C(=O)N1CCN(C(=O)c3cc(OC)c(OC)c(OC)c3)CC1)=C2 [compound 26] | 100 | 98 | 99 | 100 | inhibition in vivo at 3 mg/kg ([2]; after 1 hr.): 74%; inhibition in vivo at 3 mg/kg ([2]; after 2 hrs.): 70%; inhibition in vivo at 3 mg/kg ([2]; after 4 hrs.): 44%; inhibition in vivo at 10 mg/kg ([2]; after 1 hr.): 100%; inhibition in vivo at 10 mg/kg ([2]; after 2 hrs.): 100%; inhibition in vivo at 10 mg/kg ([2]; after 4 hrs.): 87% |
| COc1ccc2c(c1)C=C(C(=O)N1CCN(C(=O)c3cc(OC)c(OC)c(OC)c3)CC1)CCO2 [compound 27] | – | 100 | 100 | 86 | inhibition in vivo at 10 mg/kg ([2]; after 1 hr.): 79%; inhibition in vivo at 10 mg/kg ([2]; after 2 hrs.): 75%; inhibition in vivo at 10 mg/kg ([2]; after 4 hrs.): 62% |
| COc1ccc2c(c1)OCCC(C(=O)N1CCN(C(=O)c3cc(OC)c(OC)c(OC)c3)CC1)=C2 [compound 28] | – | 92 | 91 | 92 | – |
| COc1cc2c(cc1OC)OCCC(C(=O)N1CCN(C(=S)c3cc(OC)c(OC)c(OC)c3)CC1)=C2 [compound 29] | – | 100 | 100 | 100 | inhibition in vivo at 3 mg/kg ([2]; after 1 hr.): 67%; inhibition in vivo at 3 mg/kg ([2]; after 2 hrs.): 71%; inhibition in vivo at 3 mg/kg ([2]; after 4 hrs.): 61% |
| COc1cc2c(cc1OC)OCCC(C(=O)N1CCN(C(=O)c3cc(OC)c(OC)c(OC)c3)CC1)C2 (centres unmarked) [compound 33] | 47 | 99 | 99 | 79 | – |
